Assay results: patent US6258800A, “Prodrugs of benzofuranylethyl carbamate NK1 antagonists” (Warner-Lambert Company, priority 2000, dated 2001)
Structures can show the parent of a compound that is named as a salt.

Tests used:
Aqueous solubility = format: physicochemical; conditions: water
[1] = Conversion of prodrug to parent compound 1 after IV dosing (plasma HPLC); format: in vivo; conditions: male Wistar rats; for metabolised at 24 h: rat, n=3, slow IV bolus about 5 mg/kg parent-equivalent, parent compound 1 in plasma up to 24 h; for conversion to parent compound 1 in vivo (in words): IV administration
Description: Male Wistar rats weighing 244 to 390 g were used in the in vivo experiments. The day before the experiment, the rats were surgically prepared. Rats were anesthetized with ether, and the right jugular vein was cannulated for intravenous dosing and/or systemic sampling. The cannula was exteriorized at the nape of the rat between the shoulder blades. The animals were allowed to recover overnight from surgery and fasted with water ad libitum.
Dosing solutions of the prodrugs (5, 25, 18, 34, 20c, 20d, 20e, and 20f) were prepared separately in 5% dextrose in water (D5W). Compound 20a was dissolved in 5% ethanol in D5W whereas compound 29 was dissolved in 20% ethanol, 20% polyethylene glycol 400 in D5W. Animals were randomly assigned to groups of three. The prodrug solutions were administered intravenously as a slow bolus at about 5 mg/kg parent-equivalent or orally as a gastric gavage at about 15 mg/kg parent-equivalent (Table 1 on Page 10 contains PO data). The cannula was subsequently rinsed with 1 mL D5W. Systemic blood was sampled predose and at selected times up to 24 hours after dosing. Blood samples (0.5 mL) were collected on ice, heparinized, and immediately centrifuged; then plasma was harvested and stored at -20° C. until analysis by HPLC.
The plasma samples were analyzed by validated HPLC assay for the parent compound 1. Plasma (200 μL) was spiked with 18 μL of internal standard ([2-(1H-indol-3-yl)-1-methyl-1-(1-phenyl-ethylcarbamoyl)-ethyl]-carbimic acid 4-ethyl-benzyl ester; 2.5 μM) and 400 μL acetonitrile (ACN) to precipitate protein. The supernatant was transferred to a clean test tube and evaporated to dryness. The residue was reconstituted in 50:50 ACN:water and injected onto the HPLC.
Detailed bioconversion data often prodrugs is found in Table 1 below.

Row | solubility (Aqueous solubility; parent drug) [µg/mL] | metabolised at 24 h [1] [%] | conversion to parent compound 1 in vivo (in words) [1] | aqueous solubility (in words) (Aqueous solubility) | SMILES | metabolised at 24 h ([1]; in vivo) [%]
1 |  | 68 ± 5.2 | comparable reconversion as (20a) |  | C[C@H](NC(=O)[C@@](C)(Cc1cn(C(=O)OCOC(=O)c2ccc(CN3CCN(C)CC3)cc2)c2ccccc12)NC(=O)OCc1cc2ccccc2o1)c1ccccc1 [Compound 20c, 3-[2-(Benzofuran-2-ylmethoxycarbonylamino)-2-(1-phenyl-ethylcarbamoyl)-propyl]-indole-1-carboxylic acid 4-(4-methyl-piperazin-1-methyl)-benzoyloxymethyl ester dihydrochloride salt] | 
2 |  | 64.2 ± 14.3 | comparable reconversion as (20a) |  | C[C@H](NC(=O)[C@@](C)(Cc1cn(C(=O)OCOC(=O)c2ccc(CN3CCN(CCO)CC3)cc2)c2ccccc12)NC(=O)OCc1cc2ccccc2o1)c1ccccc1 [Compound 20d, 3-[2-(Benzofuran-2-ylmethoxycarbonylamino)-2-(1-phenyl-ethylcarbamoyl)-propyl]-indole-1-carboxylic acid 4-[4-(2-hydroxy-ethyl)-piperazin-1-ylmethyl]-benzoyloxymethyl ester dihydrochloride salt] | 
3 |  | 88.5 ± 9.2 | comparable reconversion as (20a) |  | C[C@H](NC(=O)[C@@](C)(Cc1cn(C(=O)OCOC(=O)c2ccc(CN3CCNCC3)cc2)c2ccccc12)NC(=O)OCc1cc2ccccc2o1)c1ccccc1 [Compound 20e, 3-[2-(Benzofuran-2-ylmethoxycarbonylamino)-2-(1-phenyl-ethylcarbamoyl)-propyl]-indole-1-carboxylic acid 4-piperazin-1-ylmethyl-benzoyloxymethyl ester dihydrochloride salt] | 
4 |  | 104 ± 38.2 | comparable reconversion as (20a) |  | C[C@H](NC(=O)[C@@](C)(Cc1cn(C(=O)OCOC(=O)c2ccc(CN(C)CCN(C)C)cc2)c2ccccc12)NC(=O)OCc1cc2ccccc2o1)c1ccccc1 [Compound 20f, 3-[2-(Benzofuran-2-ylmethoxycarbonylamino)-2-(1-phenyl-ethylcarbamoyl)-propyl]-indole-1-carboxylic acid 4-{[(2-dimethylamino-ethyl)-methyl-amino]-methyl}-benzoyloxymethyl ester dihydrochloride salt] | 

The remaining lines, values behind:

Row | SMILES | solubility (Aqueous solubility; parent drug) [µg/mL] | metabolised at 24 h [1] [%] | conversion to parent compound 1 in vivo (in words) [1] | aqueous solubility (in words) (Aqueous solubility) | metabolised at 24 h ([1]; in vivo) [%]
5 | C[C@H](NC(=O)[C@@](C)(Cc1c[nH]c2ccccc12)NC(=O)OCc1cc2ccccc2o1)c1ccccc1 [Compound 1, 2-benzofuranylmethyl [R-(R*,S*)]-[1-(1H-indol-3-ylmethyl)-1-methyl-2-oxo-2-[(1-phenylethyl)amino]ethyl]carbamate, reference compound] | < 1 |  |  |  | 
6 | C[C@H](NC(=O)[C@@](C)(Cc1cn(P(=O)(O)O)c2ccccc12)NC(=O)OCc1cc2ccccc2o1)c1ccccc1 [Compound 5, {3-[2-(Benzofuran-2-ylmethoxycarbonylamino)-2-(1-phenyl-ethylcarbamoyl)propyl]-indol-1-yl}-phosphonic acid disodium salt] |  | 11.7 ± 0.84 |  |  | 
7 | C[C@H](NC(=O)[C@@](C)(Cc1cn(C(=O)OCOC(=O)c2ccc(COP(=O)(O)O)cc2)c2ccccc12)NC(=O)OCc1cc2ccccc2o1)c1ccccc1 [Compound 18, 3-[2-(Benzofuran-2-ylmethoxycarbonylamino)-2-(1-phenyl-ethylcarbamoyl)propyl]-indol-1-carboxylic acid phosphonooxymethylbenzoyloxymethyl ester disodium salt] |  | 59.5 ± 21.3 | highest reconversion |  | 
8 | C[C@H](NC(=O)[C@@](C)(Cc1cn(C(=O)OCOC(=O)c2ccc(CN(C)C)cc2)c2ccccc12)NC(=O)OCc1cc2ccccc2o1)c1ccccc1 [Compound 20a, 3-[2-(Benzofuran-2-ylmethoxycarbonylamino)-2-(1-phenyl-ethylcarbamoyl)-propyl]-indole-1-carboxylic acid 4-dimethylaminomethyl-benzoyloxymethyl ester monohydrochloride salt] |  | 86.9 ± 18.6 | higher conversion than the phosphate prodrugs | not water-soluble | 
9 | C[C@H](NC(=O)[C@@](C)(Cc1cn(C(=O)c2ccccc2COP(=O)(O)O)c2ccccc12)NC(=O)OCc1cc2ccccc2o1)c1ccccc1 [Compound 25, {1-Methyl-1-(1-phenyl-ethylcarbamoyl)-2-[1-(2-phosphonooxymethyl-benzoyl)-1H-indol-3-yl]-ethyl}-carbamic acid benzofuran-2-ylmethyl ester disodium salt] |  | 19.9 ± 1.07 |  |  | 
10 | Cc1cc(C)c(C(C)(C)CC(=O)n2cc(C[C@@](C)(NC(=O)OCc3cc4ccccc4o3)C(=O)N[C@@H](C)c3ccccc3)c3ccccc32)c(OP(=O)(O)O)c1 [Compound 34, [2-{1-[3-(2,4-Dimethyl-6-phosphonooxy-phenyl)-3-methylbutyryl]-1H-indol-3-yl}-1-methyl-1-(1-phenylethylcarbamoyl)ethyl]carbamic acid benzofuran-2-ylmethyl ester disodium salt] |  |  | lowest bioconversion in vivo |  | 9.35 ± 4.12
